Source: publication PMC6694155, “PTPσ inhibitors promote hematopoietic stem cell regeneration” (Nature Communications, 2019)
“And” between values parts separate entries of the source, which are not always exact repeats. Equal values may be shown once. “Also recorded” adds a separate entry of the source.

Columns and labels:
Protein Phosphatase 5 = molecular target: T1, Protein Phosphatase 5 (Homo sapiens, UniProt P53041); experiment: PhosphataseProfiler screen: PP5; format: biochemical; conditions: for Supplementary Figure 1: PP5 activity: replicates
T1 construct: purchased Eurofins Pharma Discovery Services UK
T1 sequence (P53041 1-499): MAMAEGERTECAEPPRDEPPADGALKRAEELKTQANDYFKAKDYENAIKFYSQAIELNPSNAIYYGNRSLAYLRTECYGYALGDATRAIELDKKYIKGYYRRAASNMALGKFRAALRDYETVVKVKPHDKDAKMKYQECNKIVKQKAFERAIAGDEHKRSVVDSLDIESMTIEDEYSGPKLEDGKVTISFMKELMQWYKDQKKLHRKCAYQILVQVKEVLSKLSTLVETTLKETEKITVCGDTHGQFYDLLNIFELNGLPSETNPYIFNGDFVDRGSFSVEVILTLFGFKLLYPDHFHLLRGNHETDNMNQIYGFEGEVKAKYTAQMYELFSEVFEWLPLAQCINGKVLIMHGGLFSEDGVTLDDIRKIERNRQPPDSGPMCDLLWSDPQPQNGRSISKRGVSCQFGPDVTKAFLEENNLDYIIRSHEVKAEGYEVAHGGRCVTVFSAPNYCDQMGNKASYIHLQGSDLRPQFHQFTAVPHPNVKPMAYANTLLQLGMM
Method: Compound DJ001 was evaluated in a PhosphataseProfiler™ screen at 10 μM and 1 μM (2.7 μg/mL and 0.27 μg/mL) concentrations at Eurofins Pharma Discovery Services UK (Study number UK022-0004033) against a panel of 21 Phosphatases. In each experiment, the respective reference antagonist/agonist was tested directly with DJ001 and the data were compared with historical values determined at Eurofins. DJ001 compound inhibition was calculated as percentage inhibition of the enzymatic activity compared with control.

adult C57BL/6 mice = experiment: 30 day systemic treatment of non-irradiated mice (blood counts, BM HSC/progenitors, CFCs); format: in vivo, mouse
Method: Femurs and tibiae were collected from killed C57BL/6 or Ptprs^−/− mice and flushed with IMDM containing 10% FBS and 1% penicillin–streptomycin for BM cells. PB was collected through sub-mandibular puncture. Cells were filtered through a 40 μM strainer and then treated with ACK lysis buffer (Sigma Aldrich) before antibody staining for flow cytometry. For KSL and CD150^+CD48^−KSL cell analysis, BM cells were stained with allophycocyanin (APC)-and Cy7-conjugated anti-mouse Sca1 (BD Biosciences, #560654, 1:100), phycoerythrin (PE)-conjugated anti-mouse c-kit (BD Biosciences, #553355, 1:100), V450 lineage cocktail (BD Biosciences, 561301, 1:10), Alexa Fluor 488-conjugated anti-mouse CD48 (BioLegend, #103414, 1:100), and Alexa Fluor 647-conjugated anti-mouse CD150 (Biolegend, #115918, 1:100) antibodies. For MEP, CMP, GMP, and CLP cell analysis, BM cells were stained with APC-Cy7-conjugated anti-mouse Sca1 (BD Biosciences, #560654, 1:100), PE-conjugated anti-mouse ckit (BD Biosciences, #553355, 1:100), V450 lineage cocktail (BD Biosciences, #561301; 1:10), Alexa Fluor 488-conjugated anti-mouse CD127 (BD Biosciences, #561533, 1:100), Alexa Fluor 647-conjugated anti-mouse CD34 (BD Biosciences, #560230; 1:100), and BV605-conjugated anti-mouse CD16/32 antibodies (BD Biosciences, #563006; 1:100). For donor engraftment analysis in transplanted mice, PB or BM cells were stained with BV605-conjugated anti-mouse CD45.2 (BioLegend, #109841, 1:100), fluorescein isothiocyanate (FITC)-conjugated anti-mouse CD45.1 (BD Biosciences, #553775, 1:100), PE-conjugated anti-mouse Mac-1 (BD Biosciences, #557397, 1:100) and anti-mouse Gr1 (BD Biosciences, #553128, 1:100), V450-conjugated anti-mouse CD3 (BD Biosciences, #561389, 1:100), and APC-Cy7-conjugated anti-mouse B220 (BD Biosciences, 552094, 1:100) antibodies.
CFC assays (colony-forming unit-granulocyte monocyte), burst-forming unit-erythroid, and CFU-GEMM were performed using MethoCult GF M3434 (Stemcell Technologies)[6]. For all in vitro assays, BM CD34^−KSL cells, KSL cells, and Lin^− cells were cultured in TSF media (IMDM, 10% FBS, 1% pen-strep, 20 ng/mL recombinant mouse TPO, 125 ng/mL recombinant mouse SCF, 50 ng/mL recombinant mouse Flt3 ligand). Recombinant mouse SCF, Flt3 ligand, and TPO were purchased from R&D Systems. For competitive repopulation assays, BM cells were isolated from donor 10–12-week-old female CD45.2^+ mice. Recipient 10-week-old female CD45.1^+ B6.SJL mice were irradiated with 950 cGy TBI using a Cs137 irradiator and donor BM cells were administered via tail vein injection along with a competing dose of 1 × 10^5 non-irradiated host BM cells. Multilineage donor hematopoietic cell engraftment was measured in the PB by flow cytometry.

[1] = 30 day treatment of non-irradiated mice, individual mice
[2] = 30 day treatment of non-irradiated mice, replicates

For `O=C(/C=C\Nc1cccc([N+](=O)[O-])c1)c1ccccc1` [DJ001, (Z)-3-((3-nitrophenyl)amino)-1-phenylprop-2-en-1-one], the “Supplementary Figure 1: PP5 activity” value (Protein Phosphatase 5; 2.7 μg/mL DJ001) was 58 and 54 and 60, the “Supplementary Figure 1: PP5 activity” value (Protein Phosphatase 5; 0.27 g/mL DJ001) was 78 and 80 and 75 and the “inhibitory activity against Protein Phosphatase 5” value (Protein Phosphatase 5; DJ001 at 10 μM and 1 μM) was “only modest inhibitory activity”. For the same compound, the “Supplementary Figure 3c (center left panel): blood counts” value (adult C57BL/6 mice; [1]) was 0.82 and 1.16 and 1.29 and 0.87 and 1.1 and 1.4 and 0.98, the “Supplementary Figure 3c (center right panel): blood counts” value (adult C57BL/6 mice; [1]) was 4.18 and 4.99 and 3.87 and 3.78 and 3.15 and 4.96 and 3.86 and the “Supplementary Figure 3c (left panel): blood counts” value (adult C57BL/6 mice; [1]) was 5.14 and 6.28 and 5.54 and 5.44 and 4.5 and 5.46 and 7.08. The “Supplementary Figure 3c (right panel): blood counts” value (adult C57BL/6 mice; [1]) was 982 and 1048 and 1026 and 1004 and 1184 and 1209 and 1110, the “Supplementary Figure 3d (center panel): BM HSC/progenitors” value (adult C57BL/6 mice; [1]) was 3.5181 and 6.1488 and 9.9568 and 8.316 and 4.0147 and 7.046 and 6.2794 and the “Supplementary Figure 3d (left panel): BM HSC/progenitors” value (adult C57BL/6 mice; [1]) was 1.912 and 2.52 and 3.92 and 3.024 and 2.624 and 2.168 and 3.376. The “Supplementary Figure 3d (right panel): BM HSC/progenitors” value (adult C57BL/6 mice; [1]) was 3.375 and 1.086 and 2.798 and 5.06 and 3.054 and 1.789 and 4.039, the “Supplementary Figure 3e: BFU-E” value (adult C57BL/6 mice; [2]) was 0 and the “Supplementary Figure 3e: CFU-GEMM” value (adult C57BL/6 mice; [2]) was 0 (3×) and 1 (2×) and 2. The “Supplementary Figure 3e: CFU-GM” value (adult C57BL/6 mice; [2]) was 10 and 7 and 8 and 6 (2×) and 9 and the “complete blood counts, BM HSC or progenitor cell content, BM CFCs vs vehicle” value (adult C57BL/6 mice; non-irradiated mice, 5 mg/kg subcutaneously every other day for 30 days, 5 mg/kg) was “no significant changes; also recorded: caused no expansion of HSCs, progenitors, or mature blood counts”.
